Test results as given in patent publication US20100152291A1, “PRODUCTION METHOD OF CAPSINOID BY DEHYDRATING CONDENSATION, STABILIZING METHOD OF CAPSINOID, AND CAPSINOID COMPOSITION” (AJINOMOTO CO., INC., priority 2005, published 2010).
Blank lines part the entries; values can stand above or below the molecule they belong to.

Tests used:
[1] = Stability of vanillyl decanoate in acetonitrile with or without decanoic acid, purity by HPLC; format: physicochemical
Description: When ester compound (3) is separated and purified by column chromatography, fatty acid (1) present in excess in the reaction mixture has an Rf value similar to that of ester compound (3); therefore, the separation and purification of ester compound (3) is associated with difficulty. […] For example, when vanillyl decanoate was synthesized from decanoic acid and vanillyl alcohol, separated and purified from decanoic acid by silica gel column chromatography to give pure vanillyl decanoate, which was dissolved in acetonitrile and analyzed by HPLC. As a result, the purity of vanillyl decanoate was 95.6 area %. However, when the sample was reanalyzed 62 hours later, the purity decreased to 82.0 area %. […] Vanillyl decanoate is considered to have become unstable upon separation from decanoic acid. Therefore, fatty acid (1), difficult to be separated from ester compound (3), is preferably left coexisted rather than being separated, from the aspect of stability of ester compound (3).
For example, when 9.1 wt % of decanoic acid was added, in acetonitrile, to pure vanillyl decanoate separated from decanoic acid, the purity of vanillyl decanoate was 97.6 area % even after 19.5 hours and the purity was maintained.
(§1) The HPLC measurement conditions of capsinoid are as follows. HPLC conditions: column: Inertsil C8 3 u μm (diameter 4.0 mm×100 mm) eluent: A mixed solvent of eluents A, B shown below and a buffer was eluted by gradient elution method. […]
(§2) eluent A: CH3CN:buffer=80:20 eluent B: CH3CN:buffer=0:100 […]
(§3) temperature: room temperature
Vanillyl decanoate was separately synthesized from vanillyl alcohol and decanoic acid, and its stability was examined. Decanoic acid was separated by silica gel column chromatography, and the purified product was dissolved in acetonitrile and analyzed by […]
HPLC to find 95.6 area %. When the sample was reanalyzed 62 hours later, the purity decreased to 82.0 area %, and vanillyl decanoate was confirmed to have been decomposed.
Decanoic acid was separated by silica gel column chromatography, and the purified product, vanillyl decanoate, was dissolved in acetonitrile and analyzed by HPLC 9 hours later to find 90.4 area %. To the acetonitrile solution of the purified product, vanillyl decanoate, was added 9.1 wt % of decanoic acid, and the mixture was analyzed by HPLC 19.5 hours later to find 97.6 area %, showing increase in the purity as compared to the absence of decanoic acid addition. Similarly, 16.7 wt %, 28.7 wt % and 44.8 wt % of decanoic acid was added to vanillyl decanoate to result in higher purities of 98.1 area %, 98.1 area % and 97.9 area % as compared to the absence of decanoic acid addition.

[2] = Stability of capsinoid containing fatty acid, preserved in hexane at 5° C., purity by HPLC; format: physicochemical
Description: For example, dihydrocapsiate was synthesized using a small excess of fatty acid, and dihydrocapsiate obtained by preparatively separating together with the excess fatty acid remaining in about 2 wt % relative to dihydrocapsiate was analyzed by HPLC.
as §1, §2, §3
Capsiate obtained in the same manner as in Example 5, which contained 3.2 wt % of fatty acid, was analyzed by HPLC to find the purity of 97.8 area %. This capsiate was preserved in a hexane solvent at 5° C. for 30 days and analyzed by HPLC.
Dihydrocapsiate obtained in the same manner as in Example 15, which contained 2.0 wt % of fatty acid, was analyzed by HPLC to find 99.2 area %. This dihydrocapsiate was preserved in a hexane solvent at 5° C. for 30 days and analyzed by HPLC.

purity by HPLC ([1]; acetonitrile solution, 9.1 wt % of decanoic acid added, 19.5 hours later): 97.6 area %
purity by HPLC ([1]; acetonitrile solution, 16.7 wt % of decanoic acid added): 98.1 area %
purity by HPLC ([1]; acetonitrile solution, 28.7 wt % of decanoic acid added): 98.1 area %
purity by HPLC ([1]; acetonitrile solution, 44.8 wt % of decanoic acid added): 97.9 area %
purity by HPLC ([1]; pure product separated from decanoic acid, dissolved in acetonitrile, first analysis): 95.6 area %
purity by HPLC ([1]; pure product separated from decanoic acid, in acetonitrile, reanalyzed 62 hours later): 82.0 area %
purity by HPLC ([1]; purified product without decanoic acid, in acetonitrile, 9 hours later): 90.4 area %
Compound: CCCCCCCCCC(=O)OCc1ccc(O)c(OC)c1 [vanillyl decanoate]

purity by HPLC ([2]; containing 2.0 wt % of fatty acid, preserved in hexane at 5° C. for 30 days): 99.3 area %
time stably preserved without decomposition ([2]; with about 2 wt % excess fatty acid, in hexane at 5° C.): at least 30 days
Compound: COc1cc(COC(=O)CCCCCCC(C)C)ccc1O [dihydrocapsiate]

purity by HPLC ([2]; containing 3.2 wt % of fatty acid, before preservation): 97.8 area %
purity by HPLC ([2]; containing 3.2 wt % of fatty acid, preserved in hexane at 5° C. for 30 days): 97.6 area %
Compound: COc1cc(COC(=O)CCCC/C=C/C(C)C)ccc1O [capsiate]
